Test results taken from patent publication US8859818B2, “Electrophotographic photoreceptor” (Takasago International Corporation, priority 2010, dated 2014).

Columns and labels:
[1] = solubility in tetrahydrofuran; assay type: physicochemical; settings: 25° C., weight dissolved completely in 1 g tetrahydrofuran
Protocol: Each of the Exemplified Compounds (1-1) and (1-2) was dissolved in 1 g of tetrahydrofuran at 25° C.
Experiments were conducted by using Comparative Compounds (3) to (5) in the same manner as in Example 8.

[2] = dissolution in binder polymer solution for film formation; assay type: physicochemical
Protocol: Into 85 parts by weight of tetrahydrofuran, 15 parts by weight of “Panlite TS-2020” (manufactured by Teijin Chemicals Ltd.) and 15 parts by weight of Compound (1-1) were dissolved by mixing. The solution was applied by using a doctor blade onto a sheet in which aluminum was vapor deposited on a polyethylene […] (PET) film, followed by drying at 80° C. for 3 hours. Thus, a charge transport layer was formed (thickness: 18 μm). Further, a translucent gold electrode was vapor deposited on this charge transport layer, and the charge carrier mobility was measured. For the measurement of the carrier mobility, a nitrogen gas laser having a pulse half width of […] and a wavelength of 337 nm was used as a light source, and the time-of-flight method (Toshiaki Tanaka, Yasuhiro Yamaguchi and Masaaki Yokoyama, Denshi Shashin (Electrophotography), 29, 366 (1990)) was employed. Table 1 and FIG. 1 show the results measured at 25° C. and 25 V/μm.
Experiments were conducted by using Comparative Compounds (1) to (6) in the same manner as in Example 1. […] Note that it was impossible to measure the mobility of Comparative Compounds (3) to (5) because of their insolubility.
Into 8 parts by weight of tetrahydrofuran, 1 part by weight of a polycarbonate “Z-200” (manufactured by Mitsubishi Engineering-Plastics Corporation) and 1 part by weight of Compound (1-1) or (1-2) were dissolved by mixing. The liquid was applied onto the charge generation layer, followed by drying at 80° C. for 2 hours, to thereby form a charge transport layer (thickness: approximately 20 μm). Thus, each electrophotographic photoreceptor was prepared.
Experiments were conducted by using Comparative Compounds (2) to (6) in the same manner as in Example 4. […] Note that it was impossible to measure the electrophotographic characteristics of Comparative Compounds (3) to (5) because of their insolubility.
Into 85 parts by weight of tetrahydrofuran, 15 parts by weight of “Panlite TS-2020” and 15 parts by weight of Compound (1-1) or (1-2) were dissolved by mixing. This liquid was applied onto a PET plate by using a doctor blade, followed by drying at 80° C. for 3 hours. Thus, a thin film was prepared (thickness: approximately 20 μm).
Experiments were conducted by using Comparative Compounds (3) to (5) in the same manner as in Example 6. […] Note that it was impossible to perform measurement of Comparative Compounds (3) to (5) because of their insolubility.

[3] = 1 part polycarbonate Z-200, 1 part compound, 8 parts tetrahydrofuran
[4] = 15 parts Panlite TS-2020, 15 parts compound, 85 parts tetrahydrofuran

| SMILES | Solubility [1] | dissolution in binder polymer solution [2, 3] | dissolution in binder polymer solution [2, 4] | melting point |
| --- | --- | --- | --- | --- |
| Cc1ccc(/C=C/c2ccc(N(c3ccc(/C=C/c4ccc(C)cc4)cc3)c3ccc(/C=C/c4ccc(C)cc4)cc3)cc2)cc1 [Comparative Compound (3)] | 0.08 g/g tetrahydrofuran | not successfully dissolved | not successfully dissolved | – |
| Cc1ccccc1/C=C/c1ccc(N(c2ccc(/C=C/c3ccccc3C)cc2)c2ccc(/C=C/c3ccccc3C)cc2)cc1 [Comparative Compound (4)] | 0.02 g/g tetrahydrofuran | not successfully dissolved | not successfully dissolved | – |
| COc1ccc(/C=C/c2ccc(N(c3ccc(/C=C/c4ccc(OC)cc4)cc3)c3ccc(/C=C/c4ccc(OC)cc4)cc3)cc2)cc1 [Comparative Compound (5)] | 0.10 g/g tetrahydrofuran | not successfully dissolved | not successfully dissolved | – |
| Cc1cccc(C=Cc2ccc(N(c3ccc(C=Cc4cccc(C)c4)cc3)c3ccc(C=Cc4cccc(C)c4)cc3)cc2)c1 [Compound (1-1)] | 0.40 g/g tetrahydrofuran | – | – | 98 to 99 °C |
| COc1cccc(C=Cc2ccc(N(c3ccc(C=Cc4cccc(OC)c4)cc3)c3ccc(C=Cc4cccc(OC)c4)cc3)cc2)c1 [Compound (1-2)] | 0.45 g/g tetrahydrofuran | – | – | 145 to 146 °C |
